# Experimental data published in patent US20260102507A1, “CAMPTOTHECIN DERIVATIVE FOR TREATING OR PREVENTING CANCER AND ANTIBODY-DRUG CONJUGATE THEREOF” (CHENGDU BRILLIANT PHARMACEUTICAL CO., LTD., priority 2023, published 2026).
# Key:
# Format in all cases: cell-based
# [1] = test system: human colon cancer cell line HCT116; assay: Cytotoxicity assay of camptothecin derivative toxins (Example A); details: 3 days incubation, Cell Titer Turbo 2.0 luminescent cell viability
# Description: (§1) Tumor cells (human ovarian cancer cell line SK-OV-3; human colon cancer cell line HCT116; human lung adenocarcinoma cell line A549) in logarithmic growth phase were digested and adjusted to a density of approximately 3×10^4 cells/mL. The cells were plated on a white-walled 96-well plate at approximately 100 μL/well. The camptothecin derivative toxins of the Examples of the present application were serially diluted with the corresponding cell culture medium, and then mixed with the cells for incubation at 37° C. in a 5% CO2 incubator for 3 days. The growth inhibitory effect of the camptothecin derivative toxins on tumor cells was assessed by the Cell Titer Turbo 2.0 Luminescent Cell Viability Assay (Damas life, RA-GL11). Relative light unit (RLU) values were read from the cell culture plate using a microplate reader. Experimental data were analyzed using GraphPad Prism 8.0 software to calculate IC50 values. The above experiment was repeated using the following compounds as positive controls: […]
# [2] = test system: human lung adenocarcinoma cell line A549; assay: as above; details: 3 days incubation, Cell Titer Turbo 2.0 luminescent cell viability
# Description: as §1
# [3] = test system: human ovarian cancer cell line SK-OV-3; assay: as above; details: for IC50: 3 days incubation, Cell Titer Turbo 2.0 luminescent cell viability; for tumor cell killing activity: in words, overall statement on Table 2 tumor cells, compared with SN-38 and Dxd
# Description: as §1
# [4] = test system: human lung adenocarcinoma cell line NCI-H441; assay: Cytotoxicity assay of camptothecin derivative toxins (Example A'); details: Homo sapiens, NCI-H441, 72 h; Example A'; 3 days incubation; read-out: IC50 (nM) NCI-H441
# Description: (§2) The camptothecin derivatives of the Examples of the present application were serially diluted with DMSO and the corresponding cell culture medium, and were added into a white-walled 96-well plate. Tumor cells (human ovarian cancer cell line SK-OV-3; human colon cancer cell line HCT116; human lung adenocarcinoma cell line A549; human lung adenocarcinoma cell line NCI-H441; human oral epidermoid carcinoma cell line KB) in logarithmic growth phase were digested and adjusted to a density of approximately 3.33×10^4 cells/mL. The cells were plated at 90 µL/well on the white-walled 96-well plate that was pre-loaded with the samples, followed by incubation at 37° C. in a 5% CO2 incubator for 3 days. The growth inhibitory effect of the small molecule compounds on tumor cells was evaluated by the Cell Titer Turbo 2.0 Luminescent Cell Viability Assay (Damas life, RA-GL11). Relative light unit (RLU) values were read from the cell culture plates using a microplate reader. Experimental data were analyzed with GraphPad Prism 8.0 software to calculate IC50 values.
# [5] = test system: human ovarian cancer cell line SK-OV-3; assay: as above; details: Homo sapiens, SK-OV-3, 72 h; Example A'; 3 days incubation; read-out: IC50 (nM) SK-OV-3
# Description: as §2
SMILES,"IC50 ([1]; Homo sapiens, HCT-116, 72 h) [nM]","IC50 ([2]; Homo sapiens, A549, 72 h) [nM]","IC50 ([3]; Homo sapiens, SK-OV-3, 72 h) [nM]",tumor cell killing activity [3],also measured
"CC[C@@]1(O)C(=O)OCc2c1cc1n(c2=O)Cc2c-1nc1cc(F)c(C)c3c1c2[C@@H](NC(=O)CO)CC3 [DXD, Dxd, reference compound]",–,–,–,–,IC50 [1]: 49.3 nM; IC50 [2]: 413 nM; IC50 [3]: 41.4 nM
"CCc1c2c(nc3ccc(O)cc13)-c1cc3c(c(=O)n1C2)COC(=O)[C@]3(O)CC [SN-38, reference compound]",60.5,523,30.9,–,–
"CC[C@@]1(O)C(=O)OCc2c1cc1n(c2=O)Cc2c-1nc1cc(F)c(C)cc1c2CNCC1CCCC1 [STI-A2, (S)-4-ethyl-4-hydroxy-8-fluoro-9-methyl-11-(((cyclopentylmethyl)amino)methyl)-1,12-dihydro-14H-pyrano[3′,4′:6,7]indolizino[1,2-b]quinoline-3,14(4H)-dione]",52.5,107,30.8,comparable to that of SN-38 and Dxd,–
"CC[C@@]1(O)C(=O)OCc2c1cc1n(c2=O)Cc2c-1nc1cc(F)c(C)cc1c2CNCC(C)(C)C [STI-A, (S)-4-ethyl-4-hydroxy-8-fluoro-9-methyl-11-((neopentylamino)methyl)-1,12-dihydro-14H-pyrano[3′,4′:6,7]indolizino[1,2-b]quinoline-3,14(4H)-dione]",39.9,115,29.3,comparable to that of SN-38 and Dxd,–
"CC[C@@]1(O)C(=O)OCc2c1cc1n(c2=O)Cc2c-1nc1cc(F)c(C)cc1c2CCl [STI-A-4, (S)-4-ethyl-4-hydroxy-8-fluoro-9-methyl-11-(chloromethyl)-1,12-dihydro-14H-pyrano[3′,4′:6,7]indolizino[1,2-b]quinoline-3,14(4H)-dione]",222,757,71.8,–,–
"CC[C@@]1(O)C(=O)OCc2c1cc1n(c2=O)Cc2c-1nc1cc3c(cc1c2CCCCO)OCO3 [STI-E, (S)-7-ethyl-7-hydroxy-14-(4-hydroxybutyl)-10,13-dihydro-11H-[1,3]dioxolo[4,5-g]pyrano[3′,4′:6,7]indolizino[1,2-b]quinoline-8,11(7H)-dione]",1740,1060,403,–,–
"CC[C@@]1(O)C(=O)OCc2c1cc1n(c2=O)Cc2cc3cc4c(cc3nc2-1)OCO4 [STI-E-05, (S)-7-ethyl-7-hydroxy-10,13-dihydro-11H-[1,3]dioxolo[4,5-g]pyrano[3′,4′:6,7]indolizino[1,2-b]quinoline-8,11(7H)-dione]",32.9,70.3,12.7,comparable to that of SN-38 and Dxd,–
"CC[C@@]1(O)C(=O)OCc2c1cc1n(c2=O)Cc2c-1nc1cc(F)c(C)cc1c2NC(=O)CO [STI-F2, (S)—N-(4-ethyl-4-hydroxy-8-fluoro-9-methyl-3,14-dioxo-3,4,12,14-tetrahydro-1H-pyrano[3′,4′:6,7]indolizino[1,2-b]quinolin-11-yl)-2-hydroxyacetamide]",945,2370,317,–,–
"CC[C@@]1(O)C(=O)OCc2c1cc1n(c2=O)Cc2c-1nc1cc(F)c(C)cc1c2NCCCCO [STI-F6, (S)-4-ethyl-8-fluoro-4-hydroxy-9-methyl-11-((4-hydroxybutyl)amino)-1,12-dihydro-14H-pyrano[3′,4′:6,7]indolizino[1,2-b]quinoline-3,14(4H)-dione]",–,–,2.65,significantly superior to that of SN-38 and Dxd,–
"CC[C@@]1(O)C(=O)OCc2c1cc1n(c2=O)Cc2c-1nc1cc(F)c(C)cc1c2NCCCCN [STI-F7, (S)-11-((4-aminobutyl)amino)-4-ethyl-8-fluoro-4-hydroxy-9-methyl-1,12-dihydro-14H-pyrano[3′,4′:6,7]indolizino[1,2-b]quinoline-3,14(4H)-dione]",–,–,285,–,–
"CCCCCNc1c2c(nc3cc(F)c(C)cc13)-c1cc3c(c(=O)n1C2)COC(=O)[C@]3(O)CC [STI-F13, (S)-4-ethyl-8-fluoro-4-hydroxy-9-methyl-11-(pentylamino)-1,12-dihydro-14H-pyrano[3′,4′:6,7]indolizino[1,2-b]quinoline-3,14(4H)-dione]",–,–,2.37,–,–
"CC[C@@]1(O)C(=O)OCc2c1cc1n(c2=O)Cc2c-1nc1cc(F)c(C)cc1c2NC(=O)C(O)C1CC1 (stereo partly drawn) [STI-F, 2-cyclopropyl-N—((S)-4-ethyl-8-fluoro-4-hydroxy-9-methyl-3,14-dioxo-3,4,12,14-tetrahydro-1H-pyrano[3′,4′:6,7]indolizino[1,2-b]quinolin-11-yl)-2-hydroxyacetamide]",–,–,45.5,comparable to that of SN-38 and Dxd,–
"CC[C@@]1(O)C(=O)OCc2c1cc1n(c2=O)Cc2c-1nc1cc(F)c(C)cc1c2C(=O)O [STI-F-01, (S)-4-ethyl-8-fluoro-4-hydroxy-9-methyl-3,14-dioxo-3,4,12,14-tetrahydro-1H-pyrano[3′,4′:6,7]indolizino[1,2-b]quinoline-11-carboxylic acid]",322,1050,131,–,–
"CC[C@@]1(O)C(=O)OCc2c1cc1n(c2=O)Cc2c-1nc1cc(F)c(C)cc1c2N [STI-F-03C-1, (S)-4-ethyl-4-hydroxy-8-fluoro-9-methyl-11-amino-1,12-dihydro-14H-pyrano[3′,4′:6,7]indolizino[1,2-b]quinoline-3,14(4H)-dione]",38.2,1080,19.9,comparable to that of SN-38 and Dxd,–
"CC[C@@]1(O)C(=O)OCc2c1cc1n(c2=O)Cc2cc3cc(C)c(F)cc3nc2-1 [STI-F-8, (S)-4-ethyl-4-hydroxy-8-fluoro-9-methyl-1,12-dihydro-14H-pyrano[3′,4′:6,7]indolizino[1,2-b]quinoline-3,14(4H)-dione]",26.6,52.8,12.4,comparable to that of SN-38 and Dxd,–
CCCCCNc1c2c(nc3cc(F)c(C)cc13)-c1cc3c(c(=O)n1C2)COC(=O)[C@]3(O)CC [STI-F-13],–,–,–,significantly superior to that of SN-38 and Dxd,–
"CCCCCc1c2c(nc3cc(F)c(N)cc13)-c1cc3c(c(=O)n1C2)COC(=O)[C@]3(O)CC [STI-G1, (S)-4-ethyl-4-hydroxy-8-fluoro-9-amino-11-pentyl-1,12-dihydro-14H-pyrano[3′,4′:6,7]indolizino[1,2-b]quinoline-3,14(4H)-dione]",11,9.52,3.7,significantly superior to that of SN-38 and Dxd,–
"CCCSCc1c2c(nc3cc(F)c(N)cc13)-c1cc3c(c(=O)n1C2)COC(=O)[C@]3(O)CC [STI-G2, (S)-9-amino-4-ethyl-8-fluoro-4-hydroxy-11-((propylthio)methyl)-1,12-dihydro-14H-pyrano[3′,4′:6,7]indolizino[1,2-b]quinoline-3,14(4H)-dione]",11,14.9,2.19,significantly superior to that of SN-38 and Dxd,–
"CCCSCc1c2c(nc3cc(F)c(Br)cc13)-c1cc3c(c(=O)n1C2)COC(=O)[C@]3(O)CC [STI-G2-06C, (S)-9-bromo-4-ethyl-8-fluoro-4-hydroxy-11-((propylthio)methyl)-1,12-dihydro-14H-pyrano[3′,4′:6,7]indolizino[1,2-b]quinoline-3,14(4H)-dione]",81.3,216,57.8,comparable to that of SN-38 and Dxd,–
"CCCCCc1c2c(nc3cc(F)c([N+](=O)[O-])cc13)-c1cc3c(c(=O)n1C2)COC(=O)[C@]3(O)CC [STI-G03, (S)-4-ethyl-4-hydroxy-8-fluoro-9-nitro-11-pentyl-1,12-dihydro-14H-pyrano[3′,4′:6,7]indolizino[1,2-b]quinoline-3,14(4H)-dione]",268,322,137,–,–
"CCCCCc1c2c(nc3cc(F)c(NC(=O)CO)cc13)-c1cc3c(c(=O)n1C2)COC(=O)[C@]3(O)CC [STI-G5, (S)—N-(4-ethyl-8-fluoro-4-hydroxy-3,14-dioxo-11-pentyl-3,4,12,14-tetrahydro-1H-pyrano[3′,4′:6,7]indolizino[1,2-b]quinolin-9-yl)-2-hydroxyacetamide]",–,–,–,–,IC50 [4]: 2.22 nM; IC50 [5]: 10.3 nM
